target: T1, rhCRTh2 (Homo sapiens, UniProt Q9Y5Y4); assay: Ligand binding assay: [3H]PGD2 binding to HEK cell membranes containing CRTh2 (SPA beads); settings: [3H]PGD2 displacement, HEK cell membranes expressing rhCRTh2/Gα16, 2 hours room temperature
T1 construct: expressed in transfected cells; host or cells: HEK cells (membrane preparation)
T1 sequence (Q9Y5Y4 1-395): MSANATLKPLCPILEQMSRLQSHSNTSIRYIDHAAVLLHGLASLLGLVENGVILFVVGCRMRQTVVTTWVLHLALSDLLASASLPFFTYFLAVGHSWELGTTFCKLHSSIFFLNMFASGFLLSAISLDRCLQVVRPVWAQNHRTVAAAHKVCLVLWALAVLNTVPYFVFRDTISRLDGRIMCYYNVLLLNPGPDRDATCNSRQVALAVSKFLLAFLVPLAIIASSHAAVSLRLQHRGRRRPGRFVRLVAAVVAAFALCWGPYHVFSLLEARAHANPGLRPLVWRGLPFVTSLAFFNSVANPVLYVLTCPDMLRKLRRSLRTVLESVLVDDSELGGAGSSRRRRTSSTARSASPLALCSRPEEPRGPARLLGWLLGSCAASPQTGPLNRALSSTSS
Protocol: [^3H]PGD2 was purchased from Perkin Elmer Life Sciences with a specific activity of 100-210 Ci/mmol. All other chemicals were of analytical grade.
HEK cells expressing rhCRTh2/Gα16 were routinely maintained in DMEM containing 10% Foetal Bovine Serum (HyClone), 1 mg/ml geneticin, 2 mM L-glutamine and 1% non-essential amino acids. For the preparation of membranes, the adherent transfected HEK cells were grown to confluence in two layer tissue culture factories (Fisher, catalogue number TKT-170-070E). Maximal levels of receptor expression were induced by addition of […] sodium butyrate for the last 18 hours of culture. The adherent cells were washed once with phosphate buffered saline (PBS, 50 ml per cell factory) and detached by the addition of 50 ml per cell factory of ice-cold membrane homogenisation buffer [20 mM HEPES (pH 7.4), 0.1 mM dithiothreitol, 1 mM EDTA, 0.1 mM phenyl methyl sulphonyl fluoride and 100 μg/ml bacitracin]. […] The final pellet was re-suspended in 4 ml of membrane homogenisation buffer per cell factory used and the protein content determined. […]
All assays were performed in Corning clear bottomed, white 96-well NBS plates (Fisher). […] (The optimum coating concentrations were determined for each batch of membranes) The beads were pelleted by centrifugation (800×g for 7 minutes at 4° C.), washed once with assay buffer (50 mM HEPES pH 7.4 containing 5 mM magnesium chloride) and finally re-suspended in assay buffer at a bead concentration of 10 mg/ml.
Each assay contained 20 μl of 6.25 nM [^3H]PGD2, 20 μl membrane saturated SPA beads both in assay buffer and 10 μl of compound solution or 13,14-dihydro-15-keto prostaglandin D2 (DK-PGD2, for determination of non-specific binding, Cayman chemical company). […] The assay plate was incubated at room temperature for 2 hours and counted on a Wallac Microbeta liquid scintillation counter (1 minute per well).

Row | Structure (SMILES) | IC50 [nM]
1 | CCS(=O)(=O)c1ccc(Sc2cc(Cl)ccc2SCC(=O)O)c(Cl)c1 [Example 5, [(4-Chloro-2-{[2-chloro-4-(ethylsulfonyl)phenyl]thio}phenyl)thio]acetic acid] | 2.51
2 | CCS(=O)(=O)c1ccc(Oc2cc(Cl)ccc2SCC(=O)O)c(Cl)c1 [Example 7, ({4-Chloro-2-[2-chloro-4-(ethylsulfonyl)phenoxy]phenyl}thio)acetic acid] | 0.794
3 | CCS(=O)(=O)Nc1ccc(Oc2cc(Cl)ccc2NCC(=O)O)c(Cl)c1 [Example 37, N-(4-Chloro-2-{2-chloro-4-[(ethylsulfonyl)amino]phenoxy}phenyl)glycine] | 2.51
